We go through one molecule from ChEMBL document CHEMBL5154661, “Novel 2-phenyl-3-(Pyridin-2-yl) thiazolidin-4-one derivatives as potent inhibitors for proliferation of osteosarcoma cells in vitro and in vivo” (Eur J Med Chem, 2022).

Each structure is given as a SMILES string. Values after ≈ are worked out from the molar mass of the structure shown.

One series relates to 143B. Put plainly: Antiproliferative activity against human 143B cells assessed as cell growth inhibition at 1 uM measured after 72 hrs by CCK-8 assay relative to control. Type of series: functional.
A short description of series [1]: Kinetic solubility of compound at pH 6.8 by turbidimetry method. Type of series: physicochemical. The settings on record: buffer, read-out: Kinetic_solubility.
Series [2] has as its system HOS-TE85. Put plainly: Antiproliferative activity against human MNNG/HOS cells assessed as cell growth inhibition measured after 72 hrs by CCK-8 assay. The settings on record: HOS-TE85, 72 h. Type of series: functional, cell-based.
The test system of the next series is U2OS. The series is described as follows: Antiproliferative activity against human U2OS cells assessed as cell growth inhibition at 1 uM measured after 72 hrs by CCK-8 assay relative to control. Type of series: functional. In general terms: Tetrazolium assays rely on reduction of a dye to a coloured formazan, in cell work by metabolically active cells.
A short description of series [3]: Kinetic solubility of compound at pH 7.4 by turbidimetry method. The series is classed as physicochemical. The settings on record: buffer, read-out: Kinetic_solubility.
A further series deals with HOS. The series is described as follows: Antiproliferative activity against human HOS cells assessed as cell growth inhibition at 1 uM measured after 72 hrs by CCK-8 assay relative to control. Type of series: functional.
Series [4] in a line: Microsomal stability in rat liver microsomes assessed as intrinsic clearance at 0.1 uM incubated for 10 mins in presence of NADPH by LC-MS/MS analysis. Type of series: ADME, Microsome. For orientation: Liver microsomes are vesicles of endoplasmic reticulum, rich in cytochrome P450 enzymes.
A further series concerns SJSA-1. Put plainly: Antiproliferative activity against human SJSA-1 assessed as cell growth inhibition at 1 uM measured after 72 hrs by CCK-8 assay relative to control. The series is classed as functional.
A further series deals with MG-63. The series is described as follows: Antiproliferative activity against human MG-63 cells assessed as cell growth inhibition at 1 uM measured after 72 hrs by CCK-8 assay relative to control. Type of series: functional.
The nature of series [5]: Microsomal stability in mouse liver microsomes assessed as intrinsic clearance at 0.1 uM incubated for 10 mins in presence of NADPH by LC-MS/MS analysis. The series is classed as ADME, Microsome.
The nature of series [6]: Microsomal stability in human liver microsomes assessed as intrinsic clearance at 0.1 uM incubated for 10 mins in presence of NADPH by LC-MS/MS analysis. The series is classed as ADME, Microsome.
The subject of series [7] is HOS-TE85. Put plainly: Antiproliferative activity against human MNNG/HOS cells assessed as cell growth inhibition at 1 uM measured after 72 hrs by CCK-8 assay relative to control. Type of series: functional.

Regarding `Cc1cccc(N2C(=O)CSC2c2cccc(C(=O)NCCCCc3ccccc3)c2)c1` (configuration not stated), the inhibition at 1 µM in the series with 143B amounted to 71%; with U2OS, 39%; in the series on HOS it was 84%; in the series on SJSA-1, 84%; in the series on MG-63, 93%; with HOS-TE85 [7], 96%. In addition, the solubility kinetic in series [1] and in [3] was 10 µM (≈ 4.45 µg/mL) throughout. Also, the half-maximal inhibitory concentration (IC50) in the series on HOS-TE85 [2] amounted to 93.2 nM. Further, the “intrinsic clearance (CLint)” value in series [4] is 3139 mL/min/g; in [5] it was 2936 mL/min/g; in series [6], 2553 mL/min/g.

One may read the inhibition as the share of the control response that was lost under treatment. As a reminder, the IC50 is the concentration that gives 50% inhibition.
